According to article PMC10321576, “Cyclic peptides target the aromatic cage of a PHD-finger reader domain to modulate epigenetic protein function” (Chemical Science, 2023):
Peptide text beside a SMILES is read from it.

Biological target: T1, KDM7B PHD-finger (Homo sapiens, UniProt Q9UPP1)
T1 construct: KDM7B 1-66; His-tag (C); made in house
T1 sequence (Q9UPP1 1-66 isoform Q9UPP1-2): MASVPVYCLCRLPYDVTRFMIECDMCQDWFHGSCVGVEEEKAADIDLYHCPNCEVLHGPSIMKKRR
Assay: Protein NMR 1H-15N HSQC chemical shift perturbation
Assay type: binding
Excerpt: To better elucidate OC9 interactions at a single residue level, we conducted protein NMR studies using isotopically labelled PHD-finger.[48] Comparison of ^1H–^15N HSQC spectra for isotopically labelled apo and OC9-bound protein (Fig. 4a), independently assigned using ^13C,^15N 3D experiments (Fig. S21, NMR ESI ^†), identified 24 out of 66 protein residues with significant (standard deviation, s > 1) chemical shift perturbation (CSP, Δδ) of their backbone amides (Fig. 4b).
(a) ^1H–^15N HSQC of KDM7B PHD-finger in the apo (black) or bound forms with OC9 (purple, 1 : 1) or H3_1–21K4me3 (green, 3 : 1). (b) ^1H and ^15N chemical shift changes for apo vs. + OC9 were combined and weighted to give chemical shift perturbation (CSP) (Δδ) values. Standard deviation (σ) of Δδ are indicated (>1 pink, >2 purple). (c) TALOS+ predicts similar secondary structure elements in apo and OC9-bound solution protein complexes (light grey) to those found in PDB ID 3KV4 (dark grey). […] (e) Shielded ^1H-NMR signals centred around −0.5 ppm belonging to the OC9 V10 γ-methyl groups are observed in some OC9–PHD complexes, but not in apo protein, or complexes with OC9 V10A and OC9 V10DV. The V10^OC9 γ-methyl signals have NOE interactions (black semi-circles) with the W29^PHD indole, which itself is shielded upon binding of OC9 (indicated by ΔδH values).

## CC(C)[C@@H]1NC(=O)[C@H](CO)NC(=O)[C@@H]2CCCN2C(=O)[C@H](Cc2ccc(O)cc2)NC(=O)[C@@H]2CCCN2C(=O)[C@H](Cc2c[nH]cn2)NC(=O)[C@H]([C@@H](C)O)NC(=O)[C@H](C)NC(=O)[C@H](Cc2ccc(O)cc2)NC(=O)[C@H](Cc2ccc(O)cc2)NC(=O)CSC[C@@H](C(N)=O)NC(=O)[C@H]([C@@H](C)O)NC(=O)[C@H](CCCNC(=N)N)NC(=O)[C@H](Cc2ccccc2)NC1=O [L3A] (HELM PEPTIDE1{[O=C(C[*:3])[*:2]].Y.Y.A.T.H.P.Y.P.S.V.F.R.T.C.[am]}$PEPTIDE1,PEPTIDE1,1:R3-15:R3$$$V2.0; C-terminus assumed)
Residue His49 amide, PHD+OC9 vs PHD+OC9 L3A
  CSP His49, OC9 vs OC9 L3A: 0.0165
Residue His57 amide 1H-15N, Free PHD vs PHD+peptide
  CSP His57: 0.0486
Residue His57 amide, PHD+OC9 vs PHD+OC9 L3A
  CSP His57, OC9 vs OC9 L3A: 0.0065
Residue Ile21 amide 1H-15N, Free PHD vs PHD+peptide
  CSP Ile21: 0.1438
Residue Ile21 amide, PHD+OC9 vs PHD+OC9 L3A
  CSP Ile21, OC9 vs OC9 L3A: 0.0277
Residue Ile45 amide 1H-15N, Free PHD vs PHD+peptide
  CSP Ile45: 0.1010
Residue Ile45 amide, PHD+OC9 vs PHD+OC9 L3A
  CSP Ile45, OC9 vs OC9 L3A: 0.0202
Residue Ile61 amide 1H-15N, Free PHD vs PHD+peptide
  CSP Ile61: 0.1437
Residue Ile61 amide, PHD+OC9 vs PHD+OC9 L3A
  CSP Ile61, OC9 vs OC9 L3A: 0.0065
Residue Leu9 amide 1H-15N, Free PHD vs PHD+peptide
  CSP Leu9: 0.1892
Residue Leu9 amide, PHD+OC9 vs PHD+OC9 L3A
  CSP Leu9, OC9 vs OC9 L3A: 0.0129
Residue Leu12 amide 1H-15N, Free PHD vs PHD+peptide
  CSP Leu12: 0.1747
Residue Leu12 amide, PHD+OC9 vs PHD+OC9 L3A
  CSP Leu12, OC9 vs OC9 L3A: 0.0115
Residue Leu47 amide 1H-15N, Free PHD vs PHD+peptide
  CSP Leu47: 0.1015
Residue Leu47 amide, PHD+OC9 vs PHD+OC9 L3A
  CSP Leu47, OC9 vs OC9 L3A: 0.0102
Residue Leu56 amide 1H-15N, Free PHD vs PHD+peptide
  CSP Leu56: 0.0523
Residue Leu56 amide, PHD+OC9 vs PHD+OC9 L3A
  CSP Leu56, OC9 vs OC9 L3A: 0.0102
Residue Lys41 amide 1H-15N, Free PHD vs PHD+peptide
  CSP Lys41: 0.1015
Residue Lys41 amide, PHD+OC9 vs PHD+OC9 L3A
  CSP Lys41, OC9 vs OC9 L3A: 0.0275
Residue Lys63 amide 1H-15N, Free PHD vs PHD+peptide
  CSP Lys63: 0.1309
Residue Lys63 amide, PHD+OC9 vs PHD+OC9 L3A
  CSP Lys63, OC9 vs OC9 L3A: 0.0000
Residue Lys64 amide 1H-15N, Free PHD vs PHD+peptide
  CSP Lys64: 0.0250
Residue Lys64 amide, PHD+OC9 vs PHD+OC9 L3A
  CSP Lys64, OC9 vs OC9 L3A: 0.0034
Residue Met20 amide 1H-15N, Free PHD vs PHD+peptide
  CSP Met20: 0.3554
Residue Met20 amide, PHD+OC9 vs PHD+OC9 L3A
  CSP Met20, OC9 vs OC9 L3A: 0.0065
Residue Met25 amide 1H-15N, Free PHD vs PHD+peptide
  CSP Met25: 0.7126
Residue Met25 amide, PHD+OC9 vs PHD+OC9 L3A
  CSP Met25, OC9 vs OC9 L3A: 0.0388
Residue Met62 amide 1H-15N, Free PHD vs PHD+peptide
  CSP Met62: 0.0950
Residue Met62 amide, PHD+OC9 vs PHD+OC9 L3A
  CSP Met62, OC9 vs OC9 L3A: 0.0055
Residue Phe19 amide 1H-15N, Free PHD vs PHD+peptide
  CSP Phe19: 0.3115
Residue Phe19 amide, PHD+OC9 vs PHD+OC9 L3A
  CSP Phe19, OC9 vs OC9 L3A: 0.0174
Residue Phe30 amide 1H-15N, Free PHD vs PHD+peptide
  CSP Phe30: 0.2578
Residue Phe30 amide, PHD+OC9 vs PHD+OC9 L3A
  CSP Phe30, OC9 vs OC9 L3A: 0.0115
Residue Ser3 amide 1H-15N, Free PHD vs PHD+peptide
  CSP Ser3: 0.0045
Residue Ser3 amide, PHD+OC9 vs PHD+OC9 L3A
  CSP Ser3, OC9 vs OC9 L3A: 0.0000
Residue Ser33 amide 1H-15N, Free PHD vs PHD+peptide
  CSP Ser33: 0.1165
Residue Ser33 amide, PHD+OC9 vs PHD+OC9 L3A
  CSP Ser33, OC9 vs OC9 L3A: 0.0065
Residue Ser60 amide 1H-15N, Free PHD vs PHD+peptide
  CSP Ser60: 0.0496
Residue Ser60 amide, PHD+OC9 vs PHD+OC9 L3A
  CSP Ser60, OC9 vs OC9 L3A: 0.0034
Residue Thr17 amide 1H-15N, Free PHD vs PHD+peptide
  CSP Thr17: 0.2647
Residue Thr17 amide, PHD+OC9 vs PHD+OC9 L3A
  CSP Thr17, OC9 vs OC9 L3A: 0.0068
Residue Trp29 amide 1H-15N, Free PHD vs PHD+peptide
  CSP Trp29: 0.3312
Residue Trp29 amide, PHD+OC9 vs PHD+OC9 L3A
  CSP Trp29, OC9 vs OC9 L3A: 0.0599
Residue Tyr7 amide 1H-15N, Free PHD vs PHD+peptide
  CSP Tyr7: 0.2566
Residue Tyr7 amide, PHD+OC9 vs PHD+OC9 L3A
  CSP Tyr7, OC9 vs OC9 L3A: 0.0115
Residue Tyr14 amide 1H-15N, Free PHD vs PHD+peptide
  CSP Tyr14: 0.3127
Residue Tyr14 amide, PHD+OC9 vs PHD+OC9 L3A
  CSP Tyr14, OC9 vs OC9 L3A: 0.0065
Residue Tyr48 amide 1H-15N, Free PHD vs PHD+peptide
  CSP Tyr48: 0.8682
Residue Tyr48 amide, PHD+OC9 vs PHD+OC9 L3A
  CSP Tyr48, OC9 vs OC9 L3A: 0.0765
Residue Val4 amide 1H-15N, Free PHD vs PHD+peptide
  CSP Val4: 0.0240
Residue Val4 amide, PHD+OC9 vs PHD+OC9 L3A
  CSP Val4, OC9 vs OC9 L3A: 0.0068
Residue Val6 amide 1H-15N, Free PHD vs PHD+peptide
  CSP Val6: 0.1640
Residue Val6 amide, PHD+OC9 vs PHD+OC9 L3A
  CSP Val6, OC9 vs OC9 L3A: 0.0055
Residue Val16 amide 1H-15N, Free PHD vs PHD+peptide
  CSP Val16: 0.3687
Residue Val16 amide, PHD+OC9 vs PHD+OC9 L3A
  CSP Val16, OC9 vs OC9 L3A: 0.0230
Residue Val35 amide 1H-15N, Free PHD vs PHD+peptide
  CSP Val35: 0.0569
Residue Val35 amide, PHD+OC9 vs PHD+OC9 L3A
  CSP Val35, OC9 vs OC9 L3A: 0.0102
Residue Val37 amide 1H-15N, Free PHD vs PHD+peptide
  CSP Val37: 0.0783
Residue Val37 amide, PHD+OC9 vs PHD+OC9 L3A
  CSP Val37, OC9 vs OC9 L3A: 0.0065
Residue Val55 amide 1H-15N, Free PHD vs PHD+peptide
  CSP Val55: 0.0206
Residue Val55 amide, PHD+OC9 vs PHD+OC9 L3A
  CSP Val55, OC9 vs OC9 L3A: 0.0055
